# Assay results as given in ChEMBL document CHEMBL1128575, “Nonpeptidic inhibitors of human leukocyte elastase. 5. Design, synthesis, and X-ray crystallography of a series of orally active 5-aminopyrimidin-6-one-containing trifluoromethyl ketones” (J Med Chem, 1995).
# Calls of active or inactive are those of the source. No cut-off for these calls is given here.
# Experiments:
# Cricetinae gen. sp. [1] = assay: Oral dose of 2.5 mg/Kg (90 min prior to instillation of elastase) was tested for the inhibition of elastase-induced lung hemorrhage in hamster; type: functional, Cricetulus griseus
# Neutrophil elastase = target: T1, Neutrophil elastase (Homo sapiens, UniProt P08246); assay: In vitro inhibition of human leukocyte elastase mediated hydrolysis of the synthetic substrate MeO-Suc-Ala-Ala-Pro-Val-pNA
# T1 sequence (P08246 whole entry): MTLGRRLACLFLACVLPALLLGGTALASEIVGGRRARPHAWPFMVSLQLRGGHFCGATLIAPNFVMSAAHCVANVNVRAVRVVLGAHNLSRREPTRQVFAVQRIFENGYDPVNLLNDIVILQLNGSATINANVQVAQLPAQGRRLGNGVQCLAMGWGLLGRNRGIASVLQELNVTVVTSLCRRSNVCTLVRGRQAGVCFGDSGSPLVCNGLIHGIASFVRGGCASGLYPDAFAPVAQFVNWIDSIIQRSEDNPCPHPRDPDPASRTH
# Cricetinae gen. sp. [2] = assay: Compound at an oral dose of 20 mg/Kg (90 min prior to instillation of elastase) was tested for the inhibition of elastase-induced lung hemorrhage in hamster; type: functional, Cricetulus griseus
# Cricetinae gen. sp. [3] = assay: Oral dose of 2.5 mg/Kg (30 min prior to instillation of elastase) was tested for the inhibition of elastase-induced lung hemorrhage in hamster; Not active; type: functional, organism-based; details: Cricetulus griseus
# Cricetinae gen. sp. [4] = assay: Oral dose of 20 mg/Kg (30 min prior to instillation of elastase) was tested for the inhibition of elastase-induced lung hemorrhage in hamster; type: functional, Cricetulus griseus
# Cricetinae gen. sp. [5] = assay: Oral dose of 2.5 mg/Kg (30 min prior to instillation of elastase) was tested for the inhibition of elastase-induced lung hemorrhage in hamster; type: functional, Cricetulus griseus
# Cricetinae gen. sp. [6] = assay: Compound at an oral dose of 2.5 mg/Kg (90 min prior to instillation of elastase) was tested for the inhibition of elastase-induced lung hemorrhage in hamster; Not active; type: functional, organism-based; details: Cricetulus griseus
# [7] = Selectivity ratio for bovine pancreatic chymotrypsin and HLE
# [8] = Partition coefficient (logP); type: physicochemical; details: octanol/water
# [9] = Solubility of compound in 0.01 M sodium phosphate buffer at pH = […]; type: physicochemical; details: pH 7.4
# Cricetinae gen. sp. [10] = assay: Oral dose of 20 mg/Kg (30 min prior to instillation of elastase) was tested for the inhibition of elastase-induced lung hemorrhage in hamster; Not active; type: functional, organism-based; details: Cricetulus griseus
Structure (SMILES),Ki (Neutrophil elastase) [nM],inhibition in vivo at 20 mg/kg (Cricetinae gen. sp. [4]) [%],inhibition in vivo at 2.5 mg/kg (Cricetinae gen. sp. [5]) [%],further results
CSC(=O)Nc1cnc(-c2ccc(F)cc2)n(CC(=O)NC(C(=O)C(F)(F)F)C(C)C)c1=O (configuration not stated),23,–,–,inhibition in vivo at 2.5 mg/kg (Cricetinae gen. sp. [1]): 50%
CSC(=O)Nc1cnc(-c2ccccc2)n(CC(=O)NC(C(=O)C(F)(F)F)C(C)C)c1=O (configuration not stated),16,–,–,inhibition in vivo at 2.5 mg/kg (Cricetinae gen. sp. [1]): 32%; inhibition in vivo at 20 mg/kg (Cricetinae gen. sp. [2]): 57%
CC(C)C(NC(=O)Cn1c(-c2ccc(F)cc2)ncc(NS(=O)(=O)C2CCCCC2)c1=O)C(=O)C(F)(F)F (configuration not stated),1.6,–,–,inhibition (Cricetinae gen. sp. [3]): inactive
CC(C)C(NC(=O)Cn1c(-c2cccs2)ncc(NC(=O)OCC(F)(F)F)c1=O)C(=O)C(F)(F)F (configuration not stated),48,–,–,inhibition in vivo at 2.5 mg/kg (Cricetinae gen. sp. [1]): 41%; inhibition in vivo at 20 mg/kg (Cricetinae gen. sp. [2]): 60%
CNc1cnc(-c2ccc(F)cc2)n(CC(=O)NC(C(=O)C(F)(F)F)C(C)C)c1=O (configuration not stated),46,89,43,inhibition (Cricetinae gen. sp. [6]): inactive
CC(C)C(NC(=O)Cn1c(-c2ccc(F)cc2)ncc(NS(=O)(=O)C2CCCCC2)c1=O)B1OC(C)(C)C(C)(C)O1 (configuration not stated),0.21,–,31,inhibition (Cricetinae gen. sp. [6]): inactive
COC(=O)Nc1cnc(-c2ccc(F)cc2)n(CC(=O)NC(C(=O)C(F)(F)F)C(C)C)c1=O (configuration not stated),–,73,39,–
CC(C)C(NC(=O)Cn1c(-c2cccnc2)ncc(NC(=O)OCc2ccccc2)c1=O)C(=O)C(F)(F)F (configuration not stated),33,59,–,Ratio [7]: 245; logP [8]: 1.3; solubility [9]: 580 µg/mL
CC(C)C(NC(=O)Cn1c(-c2cc(F)cc(F)c2)ncc(N)c1=O)C(=O)C(F)(F)F (configuration not stated),270,72,–,inhibition in vivo at 2.5 mg/kg (Cricetinae gen. sp. [1]): 45%
CC(C)C(NC(=O)Cn1c(-c2ccccc2)ccc(NC(=O)OCc2ccccc2)c1=O)C(=O)C(F)(F)F (configuration not stated),–,–,–,logP [8]: > 4; inhibition (Cricetinae gen. sp. [10]): inactive
CC(C)C(NC(=O)Cn1c(-c2ccc(C(F)(F)F)cc2)ncc(NC(=O)OCc2ccccc2)c1=O)C(=O)C(F)(F)F (configuration not stated),42,–,–,Ratio [7]: 164; logP [8]: 2.3; inhibition (Cricetinae gen. sp. [10]): inactive; solubility [9]: 25 µg/mL
CC(C)C(NC(=O)Cn1c(-c2ccc(F)cc2)ncc(NC(=O)OCc2ccccn2)c1=O)C(=O)C(F)(F)F (configuration not stated),22,–,–,inhibition (Cricetinae gen. sp. [10]): inactive
CC(C)C(NC(=O)Cn1c(-c2ccc(N)cc2)ncc(NC(=O)OCc2ccccc2)c1=O)C(=O)C(F)(F)F (configuration not stated),3.6,–,–,inhibition (Cricetinae gen. sp. [10]): inactive
CC(C)C(NC(=O)Cn1c(-c2ccccc2)ncc(NC(=O)C(F)(F)F)c1=O)C(=O)C(F)(F)F (configuration not stated),94,73,37,inhibition (Cricetinae gen. sp. [6]): inactive
COC(=O)Nc1cnc(-c2cccs2)n(CC(=O)NC(C(=O)C(F)(F)F)C(C)C)c1=O (configuration not stated),42,80,49,inhibition (Cricetinae gen. sp. [6]): inactive
CC(C)C(NC(=O)Cn1c(-c2cccs2)ncc(N)c1=O)C(=O)C(F)(F)F (configuration not stated),52,75,47,inhibition in vivo at 2.5 mg/kg (Cricetinae gen. sp. [1]): 37%
CC(C)C(NC(=O)Cn1c(-c2cc(C(F)(F)F)cc(C(F)(F)F)c2)ncc(NC(=O)OCc2ccccc2)c1=O)C(=O)C(F)(F)F (configuration not stated),72,–,–,inhibition (Cricetinae gen. sp. [10]): inactive
CC(C)C(NC(=O)Cn1c(-c2ccccc2)ncc(NC(=O)OCc2ccccc2)c1=O)C(=O)C(F)(F)F (configuration not stated),–,54,–,logP [8]: 2.1
CC(C)C(NC(=O)Cn1c(-c2ccc(F)cc2)ncc(N)c1=O)B1OC(C)(C)C(C)(C)O1 (configuration not stated),6.2,39,–,inhibition (Cricetinae gen. sp. [3]): inactive
